≈ marks a conversion by molar mass, not a printed value. Where two headings read alike, the source gives them in different places.
Tests used:
E. coli GC 2236 = experiment: MIC, broth microdilution; settings: Escherichia coli
E. coli GC 2231 = experiment: MIC, broth microdilution; settings: Escherichia coli
E. coli GC 2235 = experiment: MIC, broth microdilution; settings: Escherichia coli
E. coli GC 2232 = experiment: MIC, broth microdilution; settings: Escherichia coli
E. coli GC 2234 = experiment: MIC, broth microdilution; settings: Escherichia coli
E. coli GC 4559 = experiment: MIC, broth microdilution; settings: Escherichia coli
S. typhimurium GC 2172 = experiment: MIC, broth microdilution; settings: Salmonella enterica, TYPHIMURIUM
S. aureus GC 6466 = experiment: MIC, broth microdilution; settings: Staphylococcus aureus
S. aureus GC 4536 = experiment: MIC, broth microdilution; settings: Staphylococcus aureus
S. aureus GC 2216 = experiment: MIC, broth microdilution; settings: Staphylococcus aureus
E. faecalis GC 4555 = experiment: MIC, broth microdilution; settings: Enterococcus faecalis
E. faecalis GC 2242 = experiment: MIC, broth microdilution; settings: Enterococcus faecalis
E. faecium GC 4556 = experiment: MIC, broth microdilution; settings: Enterococcus faecium
S. pneumoniae* GC 4465 = experiment: MIC, broth microdilution; settings: Streptococcus pneumoniae
S. pneumoniae+ GC 4465 = experiment: MIC, broth microdilution; settings: Streptococcus pneumoniae
S. pyogenes GC 4563 = experiment: MIC, broth microdilution; settings: Streptococcus pyogenes
S. agalactiae GC 4564 = experiment: MIC, broth microdilution; settings: Streptococcus agalactiae
E. coli = experiment: Range of MIC for E. coli strains; settings: Escherichia coli
Staph. = experiment: Range of MIC for Staph. strains, including MRSA; settings: Staphylococcus aureus, MRSA
Staph. aureus Smith = experiment: In vivo activity (oral, iv; ED50) against Staph. aureus Smith in mice
[1] = read-out: MINIMAL INHIBITORY CONCENTRATION MIC, pre-incubated in Mouse Serum
[2] = read-out: MINIMAL INHIBITORY CONCENTRATION MIC, pre-incubated in Water

MIC (E. coli GC 2236; GC2236, read-out: MINIMAL INHIBITORY CONCENTRATION MIC, pre-incubated in Mouse Serum): 1 µg/mL (≈ 1.21 µM)
MIC (E. coli GC 2236; GC2236, read-out: MINIMAL INHIBITORY CONCENTRATION MIC, pre-incubated in Water): > 64 µg/mL
MIC (E. coli GC 2231; GC2231, read-out: MINIMAL INHIBITORY CONCENTRATION MIC, pre-incubated in Mouse Serum): 2 µg/mL (≈ 2.42 µM)
MIC (E. coli GC 2231; GC2231, read-out: MINIMAL INHIBITORY CONCENTRATION MIC, pre-incubated in Water): > 64 µg/mL
MIC (E. coli GC 2235; GC2235, read-out: MINIMAL INHIBITORY CONCENTRATION MIC, pre-incubated in Mouse Serum): 0.5 µg/mL (≈ 0.605 µM)
MIC (E. coli GC 2235; GC2235, read-out: MINIMAL INHIBITORY CONCENTRATION MIC, pre-incubated in Water): > 64 µg/mL
MIC (E. coli GC 2232; GC2232, read-out: MINIMAL INHIBITORY CONCENTRATION MIC, pre-incubated in Mouse Serum): 0.5 µg/mL (≈ 0.605 µM)
MIC (E. coli GC 2232; GC2232, read-out: MINIMAL INHIBITORY CONCENTRATION MIC, pre-incubated in Water): > 64 µg/mL
MIC (E. coli GC 2234; GC2234, read-out: MINIMAL INHIBITORY CONCENTRATION MIC, pre-incubated in Mouse Serum): 0.5 µg/mL (≈ 0.605 µM)
MIC (E. coli GC 2234; GC2234, read-out: MINIMAL INHIBITORY CONCENTRATION MIC, pre-incubated in Water): > 64 µg/mL
MIC (E. coli GC 4559; GC4559, read-out: MINIMAL INHIBITORY CONCENTRATION MIC, pre-incubated in Mouse Serum): 1 µg/mL (≈ 1.21 µM)
MIC (E. coli GC 4559; GC4559, read-out: MINIMAL INHIBITORY CONCENTRATION MIC, pre-incubated in Water): > 64 µg/mL
MIC (S. typhimurium GC 2172; [1]): 8 µg/mL (≈ 9.69 µM)
MIC (S. typhimurium GC 2172; [2]): > 64 µg/mL
MIC (S. aureus GC 6466; GC6466, read-out: MINIMAL INHIBITORY CONCENTRATION MIC, pre-incubated in Mouse Serum): 0.25 µg/mL (≈ 0.303 µM)
MIC (S. aureus GC 6466; GC6466, read-out: MINIMAL INHIBITORY CONCENTRATION MIC, pre-incubated in Water): 0.5 µg/mL (≈ 0.605 µM)
MIC (S. aureus GC 4536; GC4536, read-out: MINIMAL INHIBITORY CONCENTRATION MIC, pre-incubated in Mouse Serum): 1 µg/mL (≈ 1.21 µM)
MIC (S. aureus GC 4536; GC4536, read-out: MINIMAL INHIBITORY CONCENTRATION MIC, pre-incubated in Water): 4 µg/mL (≈ 4.84 µM)
MIC (S. aureus GC 2216; GC2216, read-out: MINIMAL INHIBITORY CONCENTRATION MIC, pre-incubated in Mouse Serum): 0.5 µg/mL (≈ 0.605 µM)
MIC (S. aureus GC 2216; GC2216, read-out: MINIMAL INHIBITORY CONCENTRATION MIC, pre-incubated in Water): 4 µg/mL (≈ 4.84 µM)
MIC (E. faecalis GC 4555; GC4555, read-out: MINIMAL INHIBITORY CONCENTRATION MIC, pre-incubated in Mouse Serum): 1 µg/mL (≈ 1.21 µM)
MIC (E. faecalis GC 4555; GC4555, read-out: MINIMAL INHIBITORY CONCENTRATION MIC, pre-incubated in Water): 64 µg/mL (≈ 77.5 µM)
MIC (E. faecalis GC 2242; GC2242, read-out: MINIMAL INHIBITORY CONCENTRATION MIC, pre-incubated in Mouse Serum): 2 µg/mL (≈ 2.42 µM)
MIC (E. faecalis GC 2242; GC2242, read-out: MINIMAL INHIBITORY CONCENTRATION MIC, pre-incubated in Water): 4 µg/mL (≈ 4.84 µM)
MIC (E. faecium GC 4556; GC4556, read-out: MINIMAL INHIBITORY CONCENTRATION MIC, pre-incubated in Mouse Serum): 1 µg/mL (≈ 1.21 µM)
MIC (E. faecium GC 4556; GC4556, read-out: MINIMAL INHIBITORY CONCENTRATION MIC, pre-incubated in Water): 32 µg/mL (≈ 38.7 µM)
MIC (S. pneumoniae* GC 4465; [1]): < 0.06 µg/mL
MIC (S. pneumoniae* GC 4465; [2]): < 0.06 µg/mL
MIC (S. pneumoniae+ GC 4465; [1]): 2 µg/mL (≈ 2.42 µM)
MIC (S. pneumoniae+ GC 4465; [2]): 1 µg/mL (≈ 1.21 µM)
MIC (S. pyogenes GC 4563; GC4563, read-out: MINIMAL INHIBITORY CONCENTRATION MIC, pre-incubated in Mouse Serum): < 0.06 µg/mL
MIC (S. pyogenes GC 4563; GC4563, read-out: MINIMAL INHIBITORY CONCENTRATION MIC, pre-incubated in Water): < 0.06 µg/mL
MIC (S. agalactiae GC 4564; GC4564, read-out: MINIMAL INHIBITORY CONCENTRATION MIC, pre-incubated in Mouse Serum): 0.5 µg/mL (≈ 0.605 µM)
MIC (S. agalactiae GC 4564; GC4564, read-out: MINIMAL INHIBITORY CONCENTRATION MIC, pre-incubated in Water): 8 µg/mL (≈ 9.69 µM)
MIC (E. coli; 20 h, read-out: Range of MIC, E. coli (Mouse Serum)): 0.5 to 2 µg/mL (≈ 0.605 to 2.42 µM)
MIC (E. coli; read-out: Range of MIC, E. coli (Water)): > 64 µg/mL
MIC (E. coli; read-out: Range of MIC, E. coli (mouse serum)): 0.5 to 2 µg/mL (≈ 0.605 to 2.42 µM)
MIC (E. coli; read-out: Range of MIC, E. coli (water)): > 64 µg/mL
MIC (Staph.; read-out: Range of MIC, Staph (Mouse Serum)): 0.25 to 4 µg/mL (≈ 0.303 to 4.84 µM)
MIC (Staph.; read-out: Range of MIC, Staph. (mouse serum)): 0.25 to 4 µg/mL (≈ 0.303 to 4.84 µM)
SMILES: CCCN(CC(=O)Nc1cc(N(C)C)c2c(c1O)C(=O)C1=C(O)[C@]3(O)C(=O)C(C(N)=O)=C(O)[C@@H](N(C)C)[C@@H]3C[C@@H]1C2)C(=O)OCOC(=O)c1ccc(-c2ccccc2)cc1 [Example 24, ({[(2-{[(5aR,6aS,7S,10aS)-9-(aminocarbonyl)-4,7-bis(dimethylamino)-1,8,10a,11-tetrahydroxy-10,12-dioxo-5,5a,6,6a,7,10,10a,12-octahydrotetracen-2-yl]amino}-2-oxoethyl)(propyl)amino]carbonyl}oxy)methyl 1,1′-biphenyl-4-carboxylate]
ED50 (Staph. aureus Smith; Staphylococcus aureus, in Mus musculus, po, read-out: ED50 Staph Smith SOD): 27 mg/kg
ED50 (Staph. aureus Smith; iv, read-out: ED50 Staph Smith SIV): 0.59 mg/kg

Reference: patent US20070049564A1 (Wyeth, priority 2005, published 2007)
